Patent publication US20060256599A1, “Database of electronically profiled cells and methods for generating and using same” (priority 2005, published 2006)

How the values were obtained:
[1] = tested on: cells in culture; assay: effect of chemotherapeutic agents on cellular conductance and cell number; format: cell-based; details: 100 ng in each ml of media, DMEM + 10% serum, FIG. 6
Experimental: FIG. 6 depicts the effect of chemotherapeutic agents on cellular conductance and cell number.
Cells were seeding at a density of 1.0E+5 in 2 ml of DMEM with 10% FBS. The cells were grown and cultured for 24 hours. On day 2 eight wells were counted in a Coulter type counter after harvesting by trypsinization for initial cell count. Additional wells containing cells were examined to confirm cell viability and health by phase microscopy. The media as then aspirated and wells were filled with DMEM+10% serum (control) or DMEM+10% serum containing various concentrations of chemotherapeutic agent (e.g. Methotrexate.). The dose was 100 ng in each ml of media.

[2] = tested on: rat primary neonatal explants; details: in vitro; from King et al., Genentech paper; cited from earlier work

## CN(Cc1cnc2nc(N)nc(N)c2n1)c1ccc(C(=O)N[C@@H](CCC(=O)O)C(=O)O)cc1 [Methotrexate]
[1]; Coulter type counter
  cell number: decreased cell number
[1]
  cell conductance: decrease in cell conductance

## CNC[C@H](O)c1cccc(O)c1 [PE, Phenylephrine]
[2]
  metabolic activity (heart beats) increased: 84%

## leukemia inhibitory factor [LIF]
[2]
  metabolic activity (heart beats) increased: 125%

## prostaglandin F2alpha [PGF]
[2]
  metabolic activity (heart beats) increased: 54%
